# Assay results from patent US20260241012A1, “1,8-NAPHTHYRIDIN-2-ONE HETEROBIFUNCTIONAL BCL6 DEGRADERS” (Treeline Biosciences, Inc., priority 2022, published 2026).
# Molecular target: T1, N-terminal HiBiT tagged BCL6 (Homo sapiens, UniProt P41182)
# T1 construct: expressed in transfected cells; host or cells: HT1080 (ATCC CCL-121), stably transduced with lentivirus pLV-UBC-N-HiBiT-BCL6-PGK-puro
# Test: HiBiT based degradation assay
# Format: cell-based
# Conditions: HT1080 cells expressing N-terminal HiBiT tagged BCL6, 5 hours of incubation; for Ymin (5 hr): BCL6 degradation normalized with DMSO control; for DC50: four-parameter logistic model, read-out: EC50 (5 hr)
# Method in brief: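 Degradation measured by luminescence from the Nano-Glo HiBiT lytic reagent (15 min, room temperature), normalized to DMSO controls and fitted to a four-parameter curve.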
SMILES,Ymin (5 hr),DC50 [nM]
"CNC(=O)COc1cc2cc(Nc3nc(N4CCC(CN5CCN(c6cccc7c(C8CCC(=O)NC8=O)nn(C)c67)[C@H](C)C5)CC4)ncc3Cl)cnc2n(C(C)C)c1=O (stereo partly drawn) [Compound 169b, 2-((6-((5-chloro-2-(4-(((3R)-4-(3-(2,6-dioxopiperidin-3-yl)-1-methyl-1H-indazol-7-yl)-3-methylpiperazin-1-yl)methyl)piperidin-1-yl)pyrimidin-4-yl)amino)-1-isopropyl-2-oxo-1,2-dihydro-1,8-naphthyridin-3-yl)oxy)-N-methylacetamide]",++++ (Ymin < 30%),< 10
"CNC(=O)COc1cc2cc(Nc3nc(N4CCC5(CC4)CN(CC4CCN(c6cccc7c(C8CCC(=O)NC8=O)nn(C)c67)CC4)C5)ncc3Cl)cnc2n(C)c1=O (stereo not shown) [Compound 120, 2-((6-((5-chloro-2-(2-((1-(3-(2,6-dioxopiperidin-3-yl)-1-methyl-1H-indazol-7-yl)piperidin-4-yl)methyl)-2,7-diazaspiro[3.5]nonan-7-yl)pyrimidin-4-yl)amino)-1-methyl-2-oxo-1,2-dihydro-1,8-naphthyridin-3-yl)oxy)-N-methylacetamide]",++++ (Ymin < 30%),< 10
"CNC(=O)COc1cc2cc(Nc3nc(N4CCC(CN5CCN(c6cccc7c(C8CCC(=O)NC8=O)nn(C)c67)[C@@H](C)C5)CC4)ncc3F)cnc2n(C(C)C)c1=O (stereo partly drawn) [Compound 210a, 2-[[6-[[2-[4-[[(3S)-4-[3-(2,6-dioxo-3-piperidyl)-1-methyl-indazol-7-yl]-3-methyl-piperazin-1-yl]methyl]-1-piperidyl]-5-fluoro-pyrimidin-4-yl]amino]-1-isopropyl-2-oxo-1,8-naphthyridin-3-yl]oxy]-N-methyl-acetamide]",++++ (Ymin < 30%),10 to 100
"CNC(=O)COc1cc2cc(Nc3nc(N4CCN(CC5CCN(c6cccc7c(C8CCC(=O)NC8=O)nn(C)c67)CC5)CC4)ncc3Cl)cnc2n(CCOC)c1=O (stereo not shown) [Compound 154, 2-((6-((5-chloro-2-(4-((1-(3-(2,6-dioxopiperidin-3-yl)-1-methyl-1H-indazol-7-yl)piperidin-4-yl)methyl)piperazin-1-yl)pyrimidin-4-yl)amino)-1-(2-methoxyethyl)-2-oxo-1,2-dihydro-1,8-naphthyridin-3-yl)oxy)-N-methylacetamide]",++++ (Ymin < 30%),< 10
"CCn1c(=O)c(OCC(=O)NC)cc2cc(Nc3nc(N4CCN(CC5CCN(c6cccc7c(C8CCC(=O)NC8=O)nn(C)c67)CC5)CC4)ncc3Cl)cnc21 (stereo not shown) [Compound 145, 2-((6-((5-chloro-2-(4-((1-(3-(2,6-dioxopiperidin-3-yl)-1-methyl-1H-indazol-7-yl)piperidin-4-yl)methyl)piperazin-1-yl)pyrimidin-4-yl)amino)-1-ethyl-2-oxo-1,2-dihydro-1,8-naphthyridin-3-yl)oxy)-N-methylacetamide]",++++ (Ymin < 30%),< 10
"CNC(=O)COc1cc2cc(Nc3nc(N4CC5COCC(C4)N5CC4CCN(c5cccc6c(C7CCC(=O)NC7=O)nn(C)c56)CC4)ncc3Cl)cnc2n(C)c1=O (stereo not shown) [Compound 117, 2-((6-((5-chloro-2-(9-((1-(3-(2,6-dioxopiperidin-3-yl)-1-methyl-1H-indazol-7-yl)piperidin-4-yl)methyl)-3-oxa-7,9-diazabicyclo[3.3.1]nonan-7-yl)pyrimidin-4-yl)amino)-1-methyl-2-oxo-1,2-dihydro-1,8-naphthyridin-3-yl)oxy)-N-methylacetamide]",++++ (Ymin < 30%),< 10
"CNC(=O)COc1cc2cc(Nc3nc(N4CCC5(CCC(CN6CCC(c7ccc8c(C9CCC(=O)NC9=O)nn(C)c8c7F)CC6)CC5)CC4)ncc3Cl)cnc2n(C(C)C)c1=O (stereo not shown) [Compound 240, 2-((6-((5-chloro-2-(9-((4-(3-(2,6-dioxopiperidin-3-yl)-7-fluoro-1-methyl-1H-indazol-6-yl)piperidin-1-yl)methyl)-3-azaspiro[5.5]undecan-3-yl)pyrimidin-4-yl)amino)-1-isopropyl-2-oxo-1,2-dihydro-1,8-naphthyridin-3-yl)oxy)-N-methylacetamide]",++++ (Ymin < 30%),10 to 100
"CNC(=O)COc1cc2cc(Nc3nc(N4CCC(CN5C6CCC5CC(c5cccc7c(C8CCC(=O)NC8=O)nn(C)c57)C6)CC4)ncc3Cl)cnc2n(C)c1=O [Compound 143, 2-((6-((5-chloro-2-(4-(((1R,3s,5S)-3-(3-(2,6-dioxopiperidin-3-yl)-1-methyl-1H-indazol-7-yl)-8-azabicyclo[3.2.1]octan-8-yl)methyl)piperidin-1-yl)pyrimidin-4-yl)amino)-1-methyl-2-oxo-1,2-dihydro-1,8-naphthyridin-3-yl)oxy)-N-methylacetamide]",++++ (Ymin < 30%),< 10
"CNC(=O)COc1cc2cc(Nc3nc(N4CC[C@H](CNc5cccc6c(C7CCC(=O)NC7=O)nn(C)c56)C4)ncc3Cl)cnc2n(C)c1=O (stereo partly drawn) [Compound 122a, 2-((6-((5-chloro-2-((3R)-3-(((3-(2,6-dioxopiperidin-3-yl)-1-methyl-1H-indazol-7-yl)amino)methyl)pyrrolidin-1-yl)pyrimidin-4-yl)amino)-1-methyl-2-oxo-1,2-dihydro-1,8-naphthyridin-3-yl)oxy)-N-methylacetamide]",++ (50% ≤ Ymin < 70%),10 to 100
"CNC(=O)COc1cc2cc(Nc3nc(N4CC5(CC[C@H](Nc6ccc7c(C8CCC(=O)NC8=O)nn(C)c7c6)[C@H](C)C5)C4)ncc3Cl)cnc2n(C)c1=O (relative stereo) [Compound 156b, 2-((6-((5-chloro-2-((6R,7S)-7-((3-(2,6-dioxopiperidin-3-yl)-1-methyl-1H-indazol-6-yl)amino)-6-methyl-2-azaspiro[3.5]nonan-2-yl)pyrimidin-4-yl)amino)-1-methyl-2-oxo-1,2-dihydro-1,8-naphthyridin-3-yl)oxy)-N-methylacetamide]",++++ (Ymin < 30%),< 10

# The next lines start with the values.
Ymin (5 hr),DC50 [nM],SMILES
++++ (Ymin < 30%),10 to 100,"CNC(=O)COc1cc2cc(Nc3nc(N4CCC(OC5CCN(c6cccc7c(C8CCC(=O)NC8=O)nn(C)c67)CC5)CC4)ncc3Cl)cnc2n(C(C)C)c1=O (stereo not shown) [Compound 225, 2-[[6-[[5-chloro-2-[4-[[1-[3-(2,6-dioxo-3-piperidyl)-1-methyl-indazol-7-yl]-4-piperidyl]oxy]-1-piperidyl]pyrimidin-4-yl]amino]-1-isopropyl-2-oxo-1,8-naphthyridin-3-yl]oxy]-N-methyl-acetamide]"
++++ (Ymin < 30%),10 to 100,"CNC(=O)COc1cc2cc(Nc3nc(N4CCN(CC5CCN(c6cccc7c(C8CCC(=O)NC8=O)nn(C)c67)CC5)CC4)ncc3Cl)cnc2n(C(C)C)c1=O (stereo not shown) [Compound 103, 2-((6-((5-chloro-2-(4-((1-(3-(2,6-dioxopiperidin-3-yl)-1-methyl-1H-indazol-7-yl)piperidin-4-yl)methyl)piperazin-1-yl)pyrimidin-4-yl)amino)-1-isopropyl-2-oxo-1,2-dihydro-1,8-naphthyridin-3-yl)oxy)-N-methylacetamide]"
+++ (30% ≤ Ymin < 50%),10 to 100,"CNC(=O)COc1cc2cc(Nc3nc(N4CCC5(CC4)CC(N4CCN(c6cccc7c(C8CCC(=O)NC8=O)nn(C)c67)CC4)C5)ncc3Cl)cnc2n(C(C)C)c1=O (stereo not shown) [Compound 230, 2-[[6-[[5-chloro-2-[2-[4-[3-(2,6-dioxo-3-piperidyl)-1-methyl-indazol-7-yl]piperazin-1-yl]-7-azaspiro [3.5]nonan-7-yl]pyrimidin-4-yl]amino]-1-isopropyl-2-oxo-1,8-naphthyridin-3-yl]oxy]-N-methyl-acetamide]"
+++ (30% ≤ Ymin < 50%),10 to 100,"CNC(=O)COc1cc2cc(Nc3nc(N4CCCN(CC5CCN(c6cccc7c(C8CCC(=O)NC8=O)nn(C)c67)CC5)CC4)ncc3Cl)cnc2n(C)c1=O (stereo not shown) [Compound 110, 2-((6-((5-chloro-2-(4-((1-(3-(2,6-dioxopiperidin-3-yl)-1-methyl-1H-indazol-7-yl)piperidin-4-yl)methyl)-1,4-diazepan-1-yl)pyrimidin-4-yl)amino)-1-methyl-2-oxo-1,2-dihydro-1,8-naphthyridin-3-yl)oxy)-N-methylacetamide]"
+++ (30% ≤ Ymin < 50%),< 10,"CNC(=O)COc1cc2cc(Nc3nc(N4CC5(CN(CC6CCN(c7cccc8c(C9CCC(=O)NC9=O)nn(C)c78)CC6)C5)C4)ncc3Cl)cnc2n(C)c1=O (stereo not shown) [Compound 119, 2-((6-((5-chloro-2-(6-((1-(3-(2,6-dioxopiperidin-3-yl)-1-methyl-1H-indazol-7-yl)piperidin-4-yl)methyl)-2,6-diazaspiro[3.3]heptan-2-yl)pyrimidin-4-yl)amino)-1-methyl-2-oxo-1,2-dihydro-1,8-naphthyridin-3-yl)oxy)-N-methylacetamide]"
+++ (30% ≤ Ymin < 50%),< 10,"CNC(=O)COc1cc2cc(Nc3nc(N4CCC(CN5C[C@H]6C[C@@H]5CN6c5cccc6c(C7CCC(=O)NC7=O)nn(C)c56)CC4)ncc3Cl)cnc2n(C(C)C)c1=O (stereo partly drawn) [Compound 175a, 2-[[6-[[5-chloro-2-[4-[[(1R,4R)-5-[3-(2,6-dioxo-3-piperidyl)-1-methyl-indazol-7-yl]-2,5-diazabicyclo[2.2.1]heptan-2-yl]methyl]-1-piperidyl]pyrimidin-4-yl]amino]-1-isopropyl-2-oxo-1,8-naphthyridin-3-yl]oxy]-N-methyl-acetamide]"
++++ (Ymin < 30%),10 to 100,"CNC(=O)COc1cc2cc(Nc3nc(N4CCC(CN5CCN(c6cccc7c(C8CCC(=O)NC8=O)nn(C)c67)C[C@@H]5C)CC4)ncc3F)cnc2n(C(C)C)c1=O (stereo partly drawn) [Compound 188b, 2-[[6-[[2-[4-[[(2S)-4-[3-(2,6-dioxo-3-piperidyl)-1-methyl-indazol-7-yl]-2-methyl-piperazin-1-yl]methyl]-1-piperidyl]-5-fluoro-pyrimidin-4-yl]amino]-1-isopropyl-2-oxo-1,8-naphthyridin-3-yl]oxy]-N-methyl-acetamide]"
